Reference: article PMC12080252, “Daphnia magna as an Alternative Model for (Simultaneous) Bioaccumulation and Chronic Toxicity Assessment—Controlled Exposure Study Indicates High Hazard of Heterocyclic PAHs” (Environmental Science & Technology, 2025)
Values joined by “and” are separate entries in the source; they are usually repeats but may differ in a detail not shown here. Equal entries are not always repeated.

Experiments:
[1] = Chronic reproduction toxicity test (OECD 211) with passive dosing; type: in vivo, Daphnia magna; parameters: % inhibition, avr. of vessels: concentration or dose not given beside the values; details: Daphnia magna, in vivo, other: waterborne exposure by passive dosing from PDMS disks, 21-day test
Experimental: (§1) Chronic toxicity tests with D. magna were performed according to the OECD guideline 211^2 using the passive dosing method. Two days before the tests, the exposure solution was predosed by shaking 10 PDMS disks loaded with the test substance in 1 L of medium for 48 h. Each test vessel (250 mL) was first flushed with the dosed solution to equilibrate the vessel walls, then filled with 100 mL of test solution, one PDMS disk, and one juvenile D. magna (<24 h old). The tests were conducted in loosely closed bottles to allow for adequate gas exchange and limit evaporation. The exposure medium was changed three times per week, and the animals were fed D. subspicatus daily (0.2 mg C/Daphnia/day). The number of offspring per adult and behavioral or physiological effects (e.g., size, movement, unhatched eggs) were recorded daily (except weekends). Dissolved oxygen, pH and temperature were also measured each week.
(§2) Tests were performed under static conditions (20 °C, 16:8 h light/dark cycle, 1 klux). Each compound was tested in 10 replicates for controls and limit tests (a single high concentration exposure to screen for significant toxic effects) and with 6 or 10 replicates for concentration–response tests. Reuse of silicone disks was included in some experiments (Table S3). Reproductive inhibition was assessed by counting offspring over 21 days. The number of offspring per mother in treatment groups was compared to controls, and the percent inhibition per replicate was used to generate concentration–response curves. A minimum of five concentrations per compound were tested to determine EC10, EC20, and EC50 values. For each test, three sets of polymers were rotated between loading, dosing, and exposure stages (Figure S2). Initial (before animal and food addition) and final (after 2–3 days of exposure, just before the medium change) water concentrations (CW) were monitored, with the latter collected after centrifugation to remove biomass (e.g., algae, carapaces, or feces).
(§3) All data are presented as average ± standard deviation. Student’s t test was used to analyze significance (p-value >0.05 considered insignificant). Concentration–response curve parameters (effective concentrations and confidence limits) and plots were generated using GraphPad Prism software (V6.01, GraphPad Software, La Jolla, CA, USA). The exposure concentrations were log10 transformed before fitting. Then a four parameters logistic model with variable slope was used to obtain EC10, EC20 and EC50 (see section S5 in SI file for details). Effective chemical activities (EA50) for chronic toxicity were calculated as follows: [drawing 1] 1 […]
(§4) S5. Concentration-response curve (CRC) fitting procedure
(§5) GraphPad Prism version 9.5.1 was used to fit CRC and obtain EC10, EC20, EC50 values and their confidence intervals. The exposure concentrations were log10 transformed before fitting. Then a four parameters logistic model with variable slope was used that describes the response as a function of following four parameters: minimum response (the Bottom), maximum response (the Top), the concentration required to cause a response half-way between the minimum and maximum (the EC50) and the slope of the curve […]
(§6) concentration. The Top was constrained to 100, the Bottom was constrained to 0, the HillSlope was not […]
(§7) !"# %& = !"# %&* − , × !"# 3 * 4
(§8) (, + ,((!"# %&'(<=)×-.!!/!"01)
(§9) Figure S7 Concentration-response curves of four NSO-PAHs based on reproductive inhibition during 21-day chronic toxicity tests with D. magna.
(§10) (1 picture or pasted object on this page, not shown here)

[2] = test system: Daphnia magna; assay: as above; type: in vivo; parameters: % inhibition, avr. of vessels: concentration or dose not given beside the values; details: for EC10: 21-day reproduction inhibition; for #offspring per mother, Total: single vessels (replicates); for #dead offspring per mother, Total: single vessels; for wet weight of parent daphnids, change relative to control: end of 21-d exposure
Experimental: as §1, §2, §3, §4, §5, §6, §7, §8, §9, §10

[3] = 21-day reproduction test, sheet Test 4-BNF, last treatment block, single replicate vessels 1-6
[4] = BNF avr. medium concentration 0.77 µg/L, 21 days
[5] = BNF avr. medium concentration 2.99 µg/L, 21 days

c1ccc2c(c1)ccc1oc3ccccc3c12 [BNF, benzo[b]naphtho[1,2-d]furan]
mortality at 21 days, 0.3 µg/L ([1]; 0.3 µg/L (Fig. S8), read-out: % offspring mortality of total offspring): 0.3%
mortality at 21 days, 0.8 µg/L ([1]; 0.8 µg/L (Fig. S8), read-out: % offspring mortality of total offspring): 0%
mortality at 21 days, 1.5 µg/L ([1]; 1.5 µg/L (Fig. S8), read-out: % offspring mortality of total offspring): 0.4%
mortality at 21 days, 3 µg/L ([1]; 3.0 µg/L (Fig. S8), read-out: % offspring mortality of total offspring): 0%
mortality at 21 days, 4.4 µg/L ([1]; 4.4 µg/L (Fig. S8), read-out: % offspring mortality of total offspring): 0.7%
mortality at 21 days ([1]; at higher exposure levels, read-out: offspring mortality): < 1%
EC10 ([2]; 97.5-2.5% confidence interval in brackets): 0.91 (0.35-1.67) μg L^-1
EC10 ([2]; confidence interval in brackets): 4.17 (1.60-7.63) nmol L^-1
% inhibition, avr. of vessels ([2]; 21-day reproduction test, sheet Test 4-BNF, last treatment block, average of 6 vessels): 35.3%
% inhibition (of reproduction, per vessel) [2, 3]: 17.3% and 34.4% and 37.2% and 35.8% and 67.2% and 20.1%
Total #dead offspring per mother (per vessel) [2, 3]: 1 and 0
growth of parent D. magna (wet weight) ([2]; 21-day test, p-value <0.05): significantly inhibited D. magna growth
%offspring mortality ([2]; 21 days): 0.73%
#average live offspring ([2]; 21 days, mean of 6 vessels, sheet Test 4-BNF, last treatment block): 45
LOEC (lowest observed effect concentration, reproduction inhibition) ([2]; 21 days, p-value <0.05 vs controls): 3.0 μg L^–1
#total live offspring ([2]; 21 days, sum of 6 vessels, sheet Test 4-BNF, last treatment block): 272
#offspring per mother, Total ([2]; BNF avr. medium concentration 0.35 µg/L (methanol for dosing 0.063 g/L), 21 days): 77 and 63 and 72 and 59 and 68
%offspring mortality ([2]; BNF avr. medium concentration 0.35 µg/L, 21 days): 0.25%
% inhibition, avr. ([2]; BNF avr. medium concentration 0.35 µg/L, 21 days, average of vessels): 4.4%
#average live offspring ([2]; BNF avr. medium concentration 0.35 µg/L, 21 days, per mother): 67
#total live offspring ([2]; BNF avr. medium concentration 0.35 µg/L, 21 days, sum of all vessels): 402
#offspring per mother, Total ([2]; BNF avr. medium concentration 0.77 µg/L (methanol for dosing 0.125 g/L), 21 days): 72 and 65 and 81 and 60 and 59
%offspring mortality [2, 4]: 0.00%
% inhibition, avr. ([2]; BNF avr. medium concentration 0.77 µg/L, 21 days, average of vessels): 2.8%
#average live offspring ([2]; BNF avr. medium concentration 0.77 µg/L, 21 days, per mother): 68
#dead offspring per mother, Total [2, 4]: 0
#total live offspring ([2]; BNF avr. medium concentration 0.77 µg/L, 21 days, sum of all vessels): 409
#offspring per mother, Total ([2]; BNF avr. medium concentration 1.55 µg/L (methanol for dosing 0.25 g/L), 21 days): 68 and 44 and 67 and 57 and 40
%offspring mortality ([2]; BNF avr. medium concentration 1.55 µg/L, 21 days): 0.36%
% inhibition, avr. ([2]; BNF avr. medium concentration 1.55 µg/L, 21 days, average of surviving vessels): 21.3%
#average live offspring ([2]; BNF avr. medium concentration 1.55 µg/L, 21 days, per mother): 55
#total live offspring ([2]; BNF avr. medium concentration 1.55 µg/L, 21 days, sum of surviving vessels): 276
state of the mother animal (parental mortality) ([2]; BNF avr. medium concentration 1.55 µg/L, vessel 5, day 16): dead
#offspring per mother, Total ([2]; BNF avr. medium concentration 2.99 µg/L (methanol for dosing 0.5 g/L), 21 days): 46 and 49 and 38 and 47 and 60 and 51
%offspring mortality [2, 5]: 0.00%
% inhibition, avr. ([2]; BNF avr. medium concentration 2.99 µg/L, 21 days, average of vessels): 30.8%
#average live offspring ([2]; BNF avr. medium concentration 2.99 µg/L, 21 days, per mother): 49
#dead offspring per mother, Total [2, 5]: 0
#total live offspring ([2]; BNF avr. medium concentration 2.99 µg/L, 21 days, sum of all vessels): 291
EA50 (effective chemical activity) ([2]; EC50/subcooled liquid solubility, eq 1): 0.002 unitless
Classification according to REACH Annex XIII ([2]; chronic EC10 < 10 μg L^–1): toxic to aquatic life
CTLBB (critical target lipid body burden) ([2]; derived from chronic EC10 using eq 3): 1.7 μmol g^-1 octanol
wet weight of parent daphnids, change relative to control ([2]; 0.3 µg/L (Fig. S9)): -11%
wet weight of parent daphnids, change relative to control ([2]; 0.8 µg/L (Fig. S9)): -23%
wet weight of parent daphnids, change relative to control ([2]; 1.5 µg/L (Fig. S9)): -12%
wet weight of parent daphnids, change relative to control ([2]; 3.0 µg/L (Fig. S9)): -33%
wet weight of parent daphnids, change relative to control ([2]; 4.4 µg/L (Fig. S9)): -38%
Parent animal mortality ([2]; vessel 5, day 16, sheet Test 4-BNF, last treatment block): dead (reported as exposure related)
